Experimental data taken from ChEMBL document CHEMBL1127915, “Isolation and structure of the symmetrical disteroidal alkaloids cephalostatin 12 and cephalostatin 13” (1994).
In brackets after ≈: the same amount, converted by molar mass.

Tests used:
[1] = system: Panel (Carcinoma cell lines); experiment: Effective dose for human cancer cell line growth inhibition was determined; assay type: functional; conditions: read-out: ED50 (the source's name)
[2] = system: Panel (Carcinoma cell lines); experiment: Inhibitory activity against human cancer cell line growth was determined; assay type: functional

Compound: C[C@@H]1[C@]2(O[C@H]3C=C4[C@@H]5CC[C@H]6Cc7nc8c(nc7C[C@]6(C)[C@H]5C[C@@H](O)[C@]4(C)[C@]31O)C[C@@H]1CC[C@H]3C4=C[C@@H]5O[C@]6(O[C@](C)(CO)C[C@H]6O)[C@@H](C)[C@]5(O)[C@@]4(C)[C@H](O)C[C@@H]3[C@@]1(C)C8)O[C@](C)(CO)C[C@H]2O [CEPHALOSTATIN 12]
- EC50 [1]: 0.072 µg/mL (≈ 0.0762 µM)
- GI50 [2]: 400 nM

Compound: C[C@@H]1[C@]2(O[C@H]3C=C4[C@@H]5CC[C@H]6Cc7nc8c(nc7C[C@]6(C)[C@H]5C[C@@H](O)[C@]4(C)[C@]31O)C[C@@H]1CC[C@H]3C4=CC[C@@H]5[C@H](C)[C@@]6(OC[C@]45C(=O)C[C@@H]3[C@@]1(C)C8)OC(C)(C)C[C@H]6O)O[C@](C)(CO)C[C@H]2O [CEPHALOSTATIN 1]
- GI50 [2]: 1 nM

Compound: C[C@@H]1[C@]2(O[C@H]3C=C4[C@@H]5CC[C@H]6Cc7nc8c(nc7C[C@]6(C)[C@H]5C[C@@H](O)[C@]4(C)[C@]31O)C[C@@H]1CC[C@H]3C4=C[C@@H]5O[C@]6(O[C@](C)(CO)C[C@H]6O)[C@@H](C)[C@]5(O)[C@@]4(C)[C@H](O)C[C@@H]3[C@@]1(C)[C@H]8O)O[C@](C)(CO)C[C@H]2O [CEPHALOSTATIN 13]
- EC50 [1]: 0.046 µg/mL (≈ 0.0479 µM)
- GI50 [2]: > 1000 nM
